In US20250195475A1, “CDK2 INHIBITOR AND PREPARATION METHOD AND USE THEREOF” (INVENTISBIO CO., LTD., priority 2022, published 2025):

Target: CDK2/CyclinE1 (Homo sapiens (Human), UniProt P24941)
Assay: CDK2 kinase assay (TR-FRET)
Assay type: biochemical
Conditions: CDK2/CyclinE1 0.5 nM, ATP 50 μM
Experimental: The purpose of these assays is to evaluate the inhibition of small molecule inhibitors by using TR-FRET assay.
Compound Preparation. Dissslove the compounds into DMSO solution to make 10 mM DMSO stock. Serially dilute the stock solution from highest concentration down to lowest in DMSO to make the compound stock plate (100× stock plates). To make 5× compound intermediate plate, add 38 μL of assay buffer (50 mM HEPES, pH 7.5, 0.05 mg/mL BSA, 10 mM MgCl2, 1 mM EGTA, 0.01% Tween-20, 2 mM DTT) into each well of the V-bottom plate; then transfer 2 μL of the stock compound solution of each concentration from the compound stock plate (100× stock), and mix well.
Enzyme reaction. Transfer 2 μL compound from 5× intermediate plate into assay plate, then add 4 μL/well 2.5× Enzyme mix to assay plate, incubation for 10 min at room temperature. For positive control wells, add 4 μL/well assay buffer instead of Enzyme mix. Then add 4 μL/well 2.5× Substrate mix to assay plate, and incubation at 25° C. for 30 min at room temperature. After reaction, 10 μL 2× Detection mix (final 15 mM EDTA, 1× LANCE Detection Buffer, 0.5 nM Detection antibody) was added and incubated for 1 h prior to detection with excitation and emission at 320 and 665 nm (Tecan Spark® TR-FRET mode Tecan).
Inhibition rate (IR) of the tested compounds was determined by the following formula: IR (%)=(average High control−compound well)/(average High control−average Low control)*100%. Fit the compound IC50 from non-linear regression equation: Y=Bottom+(Top−Bottom)/(1+10^((Log IC50−X)*HillSlope)). X: Log of cpd concentration; Y: Inhibition rate (TR); Top and Bottom: Plateaus in same units as Y, log IC50: same log units as X; HillSlope: Slope factor or Hill slope.

| Structure (SMILES) | IC50 |
| --- | --- |
| Cc1cc(CC(=O)Nc2cc([C@H]3CC[C@@H](OC(=O)NC4COC5(CCC5)C4)C3)[nH]n2)on1 (single isomer, unassigned) [Compound 38] | 22.4 nM |
| Cc1cc(CC(=O)Nc2cc([C@H]3CC[C@@H](OC(=O)NC4COC5(CCC5)C4)C3)[nH]n2)on1 (single isomer, unassigned) [Compound 39] | 4 nM |
| Cn1nccc1C(=O)Nc1cc([C@H]2CC[C@@H](OC(=O)NC3COC4(CCC4)C3)C2)[nH]n1 (single isomer, unassigned) [Compound 43] | 12.1 nM |
| Cn1nc(C2CC2)cc1C(=O)Nc1cc([C@H]2CC[C@@H](OC(=O)NC3COC4(CCC4)C3)C2)[nH]n1 (single isomer, unassigned) [Compound 47] | 64 nM |
| Cn1nc(C2CC2)cc1C(=O)Nc1cc([C@H]2CC[C@@H](OC(=O)NC3COC4(CCC4)C3)C2)[nH]n1 (single isomer, unassigned) [Compound 48] | 10.7 nM |
| CC(C)NC(=O)O[C@@H]1CC[C@H](c2cc(NC(=O)C3CC(C)N(S(C)(=O)=O)C3)n[nH]2)C1 (single isomer, unassigned) [Compound 144] | 4.3 nM |
| CC(C)(C)NC(=O)O[C@@H]1CC[C@H](c2cc(NC(=O)C3CC3C#N)n[nH]2)C1 (single isomer, unassigned) [Compound 187] | 1.4 nM |
| CC(C)(C)NC(=O)O[C@@H]1CC[C@H](c2cc(NC(=O)C3CC3C#N)n[nH]2)C1 (single isomer, unassigned) [Compound 188] | 0.6 nM |
| CC1(NC(=O)O[C@H]2CC[C@@H](c3cc(NC(=O)C4CC4C#N)n[nH]3)C2)CC1 (single isomer, unassigned) [Compound 195] | 1.5 nM |
| CC1(NC(=O)O[C@H]2CC[C@@H](c3cc(NC(=O)C4CC4C#N)n[nH]3)C2)CC1 (single isomer, unassigned) [Compound 196] | 0.4 nM |
| Cc1c(C2CC2C(=O)Nc2cc([C@H]3CC[C@@H](OC(=O)NC4(C)CC4)C3)[nH]n2)cnn1C (single isomer, unassigned) [Compound 205] | 24 nM |
| Cc1c(C2CC2C(=O)Nc2cc([C@H]3CC[C@@H](OC(=O)NC4(C)CC4)C3)[nH]n2)cnn1C (single isomer, unassigned) [Compound 206] | 0.8 nM |
| CC1(NC(=O)O[C@@H]2CC[C@H](c3cc(NC(=O)C4CC4C#N)n[nH]3)C2)CC1 (single isomer, unassigned) [Compound 212] | 2.1 nM |
| CC1(NC(=O)O[C@@H]2CC[C@H](c3cc(NC(=O)C4CC4C#N)n[nH]3)C2)CC1 (single isomer, unassigned) [Compound 213] | 0.9 nM |
| COC(C)[C@H]1C[C@@H]1C(=O)Nc1cc([C@H]2CC[C@@H](OC(=O)NC3(C)CC3)C2)[nH]n1 (single isomer, unassigned) [Compound 220] | 1.5 nM |
| CC(C)NC(=O)O[C@@H]1CC[C@H](c2cc(NC(=O)C3CCOCC3)n[nH]2)C1 [Compound 1] | 7.1 nM |
| CC(C)NC(=O)O[C@@H]1CC[C@H](c2cc(NC(=O)[C@H]3CCN(S(C)(=O)=O)C3)n[nH]2)C1 [Compound 7] | 2.4 nM |
| CC(C)NC(=O)O[C@@H]1CC[C@H](c2cc(NC(=O)C3CCN(S(C)(=O)=O)CC3)n[nH]2)C1 [Compound 8] | 11.3 nM |
| COCc1cc(C(=O)Nc2cc([C@@H]3C[C@H](OC(=O)NC(C)C)[C@@H]4C[C@@H]43)[nH]n2)n(C)n1 [Compound 9] | 1000 nM |
| COCc1cc(C(=O)Nc2n[nH]c([C@H]3CC[C@@H](OC(=O)NC(C)C)C3)c2F)n(C)n1 [Compound 10] | 92.4 nM |
| CC(C)NC(=O)O[C@@H]1CC[C@H](c2cc(Nc3nccc(-c4cnn(C)c4)n3)n[nH]2)C1 [Compound 11] | 40.7 nM |
| CC(C)NC(=O)O[C@@H]1CC[C@H](c2cc(Nc3nccc(CCO)n3)n[nH]2)C1 [Compound 12] | 10.1 nM |
| CC(C)NC(=O)O[C@@H]1CC[C@H](c2cc(NC(=O)[C@H]3CCN(CC(F)F)C3)n[nH]2)C1 [Compound 13] | 5.8 nM |
| CC(C)NC(=O)O[C@@H]1CC[C@H](c2cc(NC(=O)[C@H]3CCN(C(=O)C(C)C)C3)n[nH]2)C1 [Compound 14] | 1.7 nM |
| COCc1cc(C(=O)NC2=NCC([C@H]3CC[C@H](N4CCN(C(C)C)C4=O)C3)=C2)n(C)n1 [Compound 20] | 1000 nM |
| CC(C)NC(=O)OC1COC(c2cc(NC(=O)c3ccnn3C)n[nH]2)C1 (stereo not shown) [Compound 26] | 3.7 nM |
| CC(C)NC(=O)OC1COC(c2cc(NC(=O)c3ccnn3C)n[nH]2)C1 (stereo not shown) [Compound 27] | 1.2 nM |
| CC(C)NC(=O)O[C@@H]1CC[C@H](c2cc(Nc3nccc(CCO)n3)n[nH]2)C1 [Compound 29] | 68.8 nM |

The next lines start with the values.

| IC50 | Structure (SMILES) |
| --- | --- |
| 37.4 nM | COC1CCC(C(=O)Nc2cc([C@H]3CC[C@@H](OC(=O)NC(C)C)C3)[nH]n2)C1 (single isomer, unassigned) [Compound 60] |
| 13.1 nM | COC1CCC(C(=O)Nc2cc([C@H]3CC[C@@H](OC(=O)NC(C)C)C3)[nH]n2)C1 (single isomer, unassigned) [Compound 61] |
| 3 nM | COC[C@H]1C[C@@H]1C(=O)Nc1cc([C@H]2CC[C@@H](OC(=O)NC(C)C(F)F)C2)[nH]n1 (single isomer, unassigned) [Compound 107] |
| 5 nM | COC[C@H]1C[C@@H]1C(=O)Nc1cc([C@H]2CC[C@@H](OC(=O)NC(C)C(F)F)C2)[nH]n1 (single isomer, unassigned) [Compound 108] |
| 3.8 nM | CC(C)NC(=O)O[C@@H]1CC[C@H](c2cc(NC(=O)C3CC3C#N)n[nH]2)C1 (single isomer, unassigned) [Compound 117] |
| 1.8 nM | CC(C)NC(=O)O[C@@H]1CC[C@H](c2cc(NC(=O)C3CC3C#N)n[nH]2)C1 (single isomer, unassigned) [Compound 118] |
| 44.3 nM | CC(C)NC(=O)O[C@@H]1CC[C@H](c2cc(NC(=O)C3CC4CCC3O4)n[nH]2)C1 (single isomer, unassigned) [Compound 146] |
| 5.5 nM | COCC1CC(C(=O)Nc2cc([C@H]3CC[C@@H](OC(=O)NC(C)C)C3)[nH]n2)C1 (single isomer, unassigned) [Compound 148] |
| 13.4 nM | COCC1CC(C(=O)Nc2cc([C@H]3CC[C@@H](OC(=O)NC(C)C)C3)[nH]n2)C1 (single isomer, unassigned) [Compound 149] |
| 85.5 nM | CC(C)NC(=O)O[C@@H]1CC[C@H](c2cc(NC(=O)C3CC4CCC3O4)n[nH]2)C1 (single isomer, unassigned) [Compound 152] |
| 2.1 nM | CC(C)NC(=O)O[C@@H]1CC[C@H](c2cc(NC(=O)C3CC3c3cnnn3C)n[nH]2)C1 (single isomer, unassigned) [Compound 153] |
| 2.6 nM | CC(C)NC(=O)O[C@@H]1CC[C@H](c2cc(NC(=O)C3CC3c3cnnn3C)n[nH]2)C1 (single isomer, unassigned) [Compound 154] |
| 0.7 nM | Cc1c(C2CC2C(=O)Nc2cc([C@H]3CC[C@@H](OC(=O)NC(C)C)C3)[nH]n2)cnn1C (single isomer, unassigned) [Compound 163] |
| 2 nM | CC(C)NC(=O)O[C@H]1CC[C@@H](c2cc(NC(=O)C3CC3C#N)n[nH]2)C1 (single isomer, unassigned) [Compound 192] |
| 0.6 nM | CC(C)NC(=O)O[C@H]1CC[C@@H](c2cc(NC(=O)C3CC3C#N)n[nH]2)C1 (single isomer, unassigned) [Compound 193] |
| 2.3 nM | CC[C@H](C)NC(=O)O[C@@H]1CC[C@H](c2cc(NC(=O)C3CC3C#N)n[nH]2)C1 (single isomer, unassigned) [Compound 199] |
| 0.9 nM | CC[C@H](C)NC(=O)O[C@@H]1CC[C@H](c2cc(NC(=O)C3CC3C#N)n[nH]2)C1 (single isomer, unassigned) [Compound 200] |
| 40.1 nM | Cc1c(C2CC2C(=O)Nc2cc([C@@H]3CC[C@H](OC(=O)NC(C)C)C3)[nH]n2)cnn1C (single isomer, unassigned) [Compound 207] |
| 0.8 nM | Cc1c(C2CC2C(=O)Nc2cc([C@@H]3CC[C@H](OC(=O)NC(C)C)C3)[nH]n2)cnn1C (single isomer, unassigned) [Compound 208] |
| 29 nM | CC(C)NC(=O)O[C@@H]1CC[C@H](c2cc(NC(=O)C3CC3c3cnn(C)c3)n[nH]2)C1 (single isomer, unassigned) [Compound 209] |
| 1 nM | CC(C)NC(=O)O[C@@H]1CC[C@H](c2cc(NC(=O)C3CC3c3cnn(C)c3)n[nH]2)C1 (single isomer, unassigned) [Compound 210] |
| 0.8 nM | COC(C)[C@H]1C[C@@H]1C(=O)Nc1cc([C@H]2CC[C@@H](OC(=O)NC3(C)CC3)C2)[nH]n1 (single isomer, unassigned) [Compound 221] |
| 17.8 nM | CO[C@H]1CC[C@H](C(=O)Nc2cc([C@H]3CC[C@@H](OC(=O)NC(C)C)C3)[nH]n2)CC1 [Compound 2] |
| 110 nM | COC[C@@H]1C[C@H]1C(=O)Nc1cc([C@H]2CC[C@@H](OC(=O)NC(C)C)C2)[nH]n1 [Compound 28] |
